Tests used:
[1] = tested on: maize tissues; assay: miRNA microarray expression profiling in maize tissues; set-up: species or system Zea mays
Experimental: miRNA microarray in various maize tissues: Tissues from maize inbred line B104 were used for miRNA profiling. Leaf tissues (at V2, V8 and flag leaf stages); immature tassel tissues (0.5 to 2.5 cm length); mature tassel tissues (tassel visible in the whorl); immature ear tissues (0.5 to 2 cm length); and mature ear tissues (visible ear shoot) were collected and immediately submerged in liquid nitrogen and stored at −80° C. Total RNA and low molecular weight RNAs were extracted using a mirVana™ miRNA isolation kit (INVITROGEN; Carlsbad, CA) following the manufacturer's instructions. RNA quality and quantity were assessed by optical density with a NANODROP 2000 spectrophotometer (THERMO SCIENTIFIC; Wilmington, DE) and by gel electrophoresis. miRNA microarray was performed by a commercial provider (LC SCIENCES; Houston, TX) using μParaflo® microfluidic oligonucleotide microarray technology. Zhou et al., (2012) Methods Mol. Biol. 822:153-82. All unique plant miRNA sequences available in MiRBase™ (mirbase.org) were printed on the arrays and used for miRNA profiling. […]

[2] = tested on: Maize Immature Embryos; assay: Transient AAD1 expression in immature embryos after particle bombardment, ELISA; assay type: cell-based, Zea mays; conditions: 24 hours after particle bombardment
Source text: Zea mays embryos from inbred line B104 that express AAD1 mRNAs having miRNA target sites within the mRNA were produced. Control tissues having no miRNA target sites in the AAD1 mRNA, or having no AAD1 gene expression cassette, were also produced. Other control tissues were produced that had only a YFP gene expression cassette (and no AAD1 construct). Preparations of plant transformation DNA molecules constructed as described in EXAMPLE 2 were delivered into maize B104 immature embryos via particle bombardment transformation.
Plasmid DNAs of pDAB112375, pDAB112376, pDAB112377, pDAB113016, pDAB100286, pDAB112378 and pDAB112330 were isolated and purified from Escherichia coli by standard techniques, and diluted in TE buffer (10 mM Tris HCl plus 1 mM EDTA, pH 8) to 1.0 μg/μL.
Embryo isolation and culture: (Day 1) Surface-sterilized B104 immature ears (10 to 12 days post-pollination) were used for the isolation of embryos. Excised immature embryos from 3 to 4 ears were pooled into 2 mL microfuge tubes containing 2.0 mL liquid medium (LS basal medium (Linsmaier and Skoog, (1965) Physiologia Plantarum 18:100-27) containing CHU N6 vitamins (Chu et al. (1975) Scientia Sinica 18:659-68), 700 mg/L L-Proline, 68.5 gm/L sucrose, 36 gm/L D(+) glucose, and 1.5 mg/L 2,4-D). After embryo isolation, the liquid medium was removed and discarded. Embryos were removed and placed onto plates (40 embryos per plate) containing a semi-solid osmotic medium (MS basal medium (Murashige and Skoog, (1962) Physiologia Plantarum 15:473-497), 2 mg/L Glycine, 500 μg/L Thiamine, 500 μg/L Pyroxidine, 50 μg/L Nicotinic Acid., 120 gm/L sucrose, 100 mg/L myo-inositol, and 2.4 gm/L GELRITE). The embryos were arranged in a […] within the target area for particle bombardment. Three replicate plates were prepared for each construct to be tested. All plates were incubated at 28° C. under continuous low light (50 μEm^−2 sec^−1) for 24 hours prior to particle bombardment.
Coating gold particles with DNA: (Day 2) Tubes of frozen gold particles glycerol stock were thawed on ice for a few minutes, then vortexed for 2 minutes at high speed until a uniform gold suspension was produced. Gold suspension was pipetted into sterile microcentrifuge tubes (50 μL each), with an intermediate vortexing of the particle stock between each tube to maintain a uniform suspension. 2.5 μg each of appropriate plasmid DNAs were included. […]
ELISA quantification of AAD1 and PAT proteins: Enzyme Linked Immunosorbant Assays (ELISAs) were used to measure the production of AAD1 and PAT proteins in maize cells and stably-transformed tissues. […]

“miR156: Zea mays micro-RNA, SEQ ID NO:1 UGACAGAAGAGAGUGAGCAC (expressed or natural sequence)” gave a relative expression levels ([1]; Flag Leaf) of 1657, a relative expression levels ([1]; Immature Ear) of 112 and a relative expression levels ([1]; Immature Tassel) of 78. The relative expression levels ([1]; Leaf V2) was 4648, the relative expression levels ([1]; Leaf V8) was 1337 and the relative expression levels ([1]; Mature Ear) was 1595. It also gave a relative expression levels ([1]; Mature Tassel) of 2810.

“miR319: micro-RNA, SEQ ID NO:3 UUGGACUGAAGGGUGCUCCC (expressed or natural sequence)” showed a relative expression levels ([1]; Flag Leaf) of 16, a relative expression levels ([1]; Immature Ear) of 3905 and a relative expression levels ([1]; Immature Tassel) of 2078. For the same molecule, the relative expression levels ([1]; Leaf V2) was 13, the relative expression levels ([1]; Leaf V8) was 8 and the relative expression levels ([1]; Mature Ear) was 4616. The relative expression levels ([1]; Mature Tassel) was 1566.

“miR529: Zea mays micro-RNA, SEQ ID NO:2 AGAAGAGAGAGAGUACAGCCU (expressed or natural sequence)” gave a relative expression levels ([1]; Flag Leaf) of 30, a relative expression levels ([1]; Immature Ear) of 90 and a relative expression levels ([1]; Immature Tassel) of 3174. It also gave a relative expression levels ([1]; Leaf V2) of 199, a relative expression levels ([1]; Leaf V8) of 34 and a relative expression levels ([1]; Mature Ear) of 1405. The relative expression levels ([1]; Mature Tassel) was 1512 and the “level higher in immature tassel tissues than in leaves” value ([1]; immature tassel vs leaves) was 16- to 100 fold.

B1: pDAB112375: Transient transformation construct: ZmUbilv2/AAD1 v3/native WT miR529-156 site/ZmPer5 3′UTR (SEQ ID NO:6) (nucleic acid)
DNA: ATGGCTCATGCTGCCCTCAGCCCTCTCTCCCAACGCTTTGAGAGAATAGCTGTCCAGCCACTCACTGGTGTCCTTGGTGCTGAGATCACTGGAGTGGACTTGAGGGAACCACTTGATGACAGCACCTGGAATGAGATATTGGATGCCTTCCACACTTACCAAGTCATCTACTTTCCTGGCCAAGCAATCACCAATGAGCAGCACATTGCATTCTCAAGAAGGTTTGGACCAGTTGATCCAGTGCCTCTTCTCAAGAGCATTGAAGGCTATCCAGAGGTTCAGATGATCCGCAGAGAAGCCAATGAGTCTGGAAGGGTGATTGGTGATGACTGGCACACAGACTCCACTTTCCTTGATGCACCTCCAGCTGCTGTTGTGATGAGGGCCATAGATGTTCCTGAGCATGGCGGAGACACTGGGTTCCTTTCAATGTACACAGCTTGGGAGACCTTGTCTCCAACCATGCAAGCCACCATCGAAGGGCTCAACGTTGTGCACTCTGCCACACGTGTGTTCGGTTCCCTCTACCAAGCACAGAACCGTCGCTTCAGCAACACCTCAGTCAAGGTGATGGATGTTGATGCTGGTGACAGAGAGACAGTCCATCCCTTGGTTGTGACTCATCCTGGCTCTGGAAGGAAAGGCCTTTATGTGAATCAAGTCTACTGTCAGAGAATTGAGGGCATGACAGATGCAGAATCAAAGCCATTGCTTCAGTTCCTCTATGAGCATGCCACCAGATTTGACTTCACTTGCCGTGTGAGGTGGAAGAAAGACCAAGTCCTTGTCTGGGACAACTTGTGCACCATGCACCGTGCTGTTCCTGACTATGCTGGCAAGTTCAGATACTTGACTCGCACCACAGTTGGTGGAGTTAGGCCTGCCCGCTGAGTAGTTAGCTTAATCACCTAGAGCTCGACTCCAGCTGTGCTCTCTCTCTTCTGTCAACTCAGGTAACCTTTAAACTGAGGGCACTGAAGTCGCTTGATGTGCTGAATTGTTTGTGATGTTGGTGGCGTATTTTGTTTAAATAAGTAAGCATGGCTGTGATTTTATCATATGATCGATCTTTGGGGTTTTATTTAACACATTGTAAAATGTGTATCTATTAATAACTCAATGTATAAGATGTGTTCATTCTTCGGTTGCCATAGATCTGCTTATTTGACCTGTGATGTTTTGACTCCAAAAACCAAAATCACAACTCAATAAACTCATGGAATATGTCCACCTGTTTCTTGAAGAGTTCATCTACCATTCCAGTTGGCATTTATCAGTGTTGCAGCGGCGCTGTGCTTTGTAACATAACAATTGTTACGGCATATATCCAA
modifications: pDAB112375 expression cassette; (918)..(952) native tsh4 miR529-156 target site; (967)..(1331) ZmPer5 3′UTR
With B1 the “Mean AAD1 Amount” value ([2]; co-bombardment plasmid pDAB112330 (Cry34Ab)) was 58 ng/mL and the “Mean AAD1 Amount” value ([2]; co-bombardment plasmid pDAB112378 (artificial miRNA)) was 51 ng/mL.
